Converted amounts (≈) assume the structure as drawn. Blank lines part the entries; values can stand above or below the molecule they belong to.
Legend:
[1] = Spontaneous reactivity with GSH (UV-visible spectra); type: physicochemical; details: 40 μM compound, 1 mM GSH, 0.1 M potassium phosphate buffer pH 6.5, 25°C, within 1 h
Procedure: The spontaneous reactivity of the NBDs with GSH was determined at 25°C by recording the UV-visible spectrum of each compound (40 μM) incubated with 1 mM GSH, in 0.1 M potassium phosphate buffer, pH 6.5, at different time points.

GSTP1-1 [2] = target: T1, GSTP1-1 (Homo sapiens, UniProt P09211); assay: Inhibition of GSTP1-1 conjugation activity; type: biochemical
T1 construct: made in house; host or cells: Escherichia coli
Procedure: (§1) Human GSTM2-2, GSTP1-1, JNK1a2 and TRAF2 were expressed in Escherichia coli and purified as previously described; protein concentration was determined using the Lowry colorimetric assay. Unless specified otherwise, all chemicals were purchased from Sigma-Aldrich S.r.l. (Milan, Italy).
GST activity was determined spectrophotometrically at 340 nm (ε = 9,600 M^−1 cm^−1), as previously reported. […] Fifty percent inhibitory concentration (IC50) values were calculated by fitting the data to Equation 1, where ν is the percentage of the saturated binding sites; [P]t is the total GST concentration and [L]t is the total inhibitor concentration, assuming a 1:1 interaction stoichiometry between the inhibitor and one GST subunit, as well as that the binding sites are equal and independent.

GSTM2-2 = target: T2, GSTM2-2 (Homo sapiens, UniProt P28161); assay: Inhibition of GSTM2-2 conjugation activity; type: biochemical; details: GSTM2-2 5 nM
T2 construct: made in house; host or cells: Escherichia coli
T2 sequence (P28161 1-218): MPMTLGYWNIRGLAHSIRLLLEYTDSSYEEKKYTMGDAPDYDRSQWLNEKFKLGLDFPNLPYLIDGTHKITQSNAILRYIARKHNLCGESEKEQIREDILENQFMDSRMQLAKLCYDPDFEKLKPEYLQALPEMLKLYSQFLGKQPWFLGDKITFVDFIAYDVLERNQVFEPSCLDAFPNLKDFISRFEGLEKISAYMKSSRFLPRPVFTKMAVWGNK
Procedure: as §1
GST activity was determined spectrophotometrically at 340 nm (ε = 9,600 M^−1 cm^−1), as previously reported. Inhibition experiments were performed by measuring GSTP1-1 (20 nM) or GSTM2-2 (5 nM) activities in the presence of various amounts of the selected NBD derivative (from 0.1 to 20 μM with GSTP1-1, and from 0.005 and 1 μM with GSTM2-2). Fifty percent inhibitory concentration (IC50) values were calculated by fitting the data to Equation 1, where ν is the percentage of the saturated binding sites; [P]t is the total GST concentration and [L]t is the total inhibitor concentration, assuming a 1:1 interaction stoichiometry between the inhibitor and one GST subunit, as well as that the binding sites are equal and independent.

[3] = Solubility limits in aqueous buffers; type: physicochemical; details: thermodynamic from solid
From the text: The solutions obtained were separated from any undissolved matter by centrifugation at 15,000 g and evaluated for drug concentration by recording compound absorbance at 425 nm, using molar extinction coefficients calculated at the same wavelength with diluted standard solutions, prepared in the same matrices.

GSTP1-1 [4] = target: T1, GSTP1-1; assay: Sigma complex formation in the GSTP1-1 active site; type: biochemical; details: 40 μM compound, 40 μM GSTP1-1, 1 mM GSH, pH 6.5, 25°C
Procedure: as §1
The ability of GSTP1-1 to stabilize the intermediate σ-complex formed between GSH and the compounds, was evaluated by recording the spectrum of each molecule (40 μM), in 0.1 M potassium phosphate buffer, pH 6.5, before and after the addition of a stoichiometric amount of GSTP1-1 and 1 mM GSH.

G-361 = assay: Cell growth inhibition, SRB assay; type: cell-based; details: Homo sapiens, G-361, 48 h
Procedure: (§2) The IC50 values for each compound were then evaluated by the SRB assay.

MALME-3M = assay: Cell growth inhibition, SRB assay; type: cell-based; details: Homo sapiens, 48 h
Procedure: as §2

SK23-MEL = assay: Cell growth inhibition, SRB assay; type: cell-based; details: Homo sapiens, 48 h
Procedure: as §2

IST-MEL-1 = assay: Cell growth inhibition, SRB assay; type: cell-based; details: Homo sapiens, IST-MEL-1, 48 h
Procedure: as §2

A375 = assay: Cell growth inhibition, SRB assay; type: cell-based; details: Homo sapiens, A-375, A375, 48 h
Procedure: as §2

A375 cells [5] = assay: Cell cycle analysis (PI, flow cytometry); type: cell-based, human; details: A375, pretreatment with SP600125 20 μM, 24 hrs exposure to MC3181
Procedure: A375 and SK23-MEL cells, were fixed with 70% ethanol overnight, stained with PI staining buffer ([…] and 1% Triton X-100) and analyzed by a FACSCalibur (BD Bioscence, San Jose, CA, USA). The percentage of early apoptotic, late apoptotic, and necrotic cells was determined by simultaneous staining of cells with PI (2 μg/ml) and Annexin V-FITC (0.5 μg/ml) (Sigma Aldrich), according to manufacturer's protocol. Flow cytometric data were analyzed by the FlowJo 8.8.6 software (Tree Stare, Inc, Ashland, OR, USA).

A375 cells [6] = assay: Caspase-3 activity in cell lysates; type: cell-based, human; details: A375, pretreatment with SP600125 20 μM, 24 hrs exposure to MC3181
Procedure: Apoptosis was confirmed by measuring caspase-3 activity, at 25°C, in total cell lysates, using the model fluorescent peptide substrate N-Acetyl-Asp-Glu-Val-Asp-7-amido-4-trifluoromethylcoumarin (Ac-DEVD-AFC). […] Caspase activity was expressed as change in fluorescence per min, per 10^6 cells.

[7] = system: mice bearing human tumor xenografts; assay: Toxicity in tumor-bearing mice (net BW variation, macroscopic autopsy); type: in vivo; details: during treatment, MC3181 8 mg/kg/day, TMZ 100 mg/kg/day i.p.
Procedure: Toxicity was also evaluated in tumor-bearing mice on the basis of macroscopic autopsy findings, mainly in terms of alteration to the size and color of vital organs, and net BW reduction. The percentage of net BW variation, between the first day of treatment and sacrifice day (or day of interest), was evaluated according to the following equation: % net BW variation =net BW at observation day −net BW at first day of treatment/net BW at first day of treatment ×100 (Eq. 2)

A375 human melanoma = assay: A375 fragment xenograft model, antitumor efficacy; type: in vivo, mice; details: MC3181 i.v. 8mg/kg/d q1dx5 three weeks
Procedure: With regard to the in vivo fragment tumor model, A375 cells were injected (1×10^7) subcutaneously (s.c.) into the right flank of an athymic Nude-Foxn1nu female mouse, and the established primary tumor was then removed and cut into fragments (2–3 mm diameter) and implanted s.c. into recipient mice. Animals were randomly divided in groups of 7 mice and treatment was initiated when a tumor volume of 0.12 ± 0.01 cm^3 (mean ± SEM) was reached.
The reference drug temozolomide, dissolved in DMSO/PBS 1:1 to a final concentration of 10 mg/ml, was administered i.p. q1dx5 at a dose of 100mg/kg/day.
Primary tumor growth was determined for all animals by caliper measurement (minor and major axis length), three times per week, until they were sacrificed. Primary tumor volume was determined using the following equation: V (cm^3)=(α^2×β)/2 (Eq. 3)
The efficacy of the treatment was also analyzed by calculation of the percentage of Increase in Life Span (% ILS), since this analysis gives an evidence of clinical potency. Survival endpoint for each animal was fixed at the day when tumor volume reached 1.0 cm^3 (A375) or 0.4 cm^3 (SK23-MEL and G-361), and data were used to plot the relative Kaplan-Meier curves. Treatment efficacy was then evaluated by comparing the Median Survival Time (MST) of treated group with the MST of control group, and expressed as percentage of ILS: % ILS=[100×(MSTtreated group)/(MSTcontrol group)]−100 (Eq. 4)
Treatment was considered effective when % ILS > 20%.

T1 sequence (P09211 2-210 limits assumed): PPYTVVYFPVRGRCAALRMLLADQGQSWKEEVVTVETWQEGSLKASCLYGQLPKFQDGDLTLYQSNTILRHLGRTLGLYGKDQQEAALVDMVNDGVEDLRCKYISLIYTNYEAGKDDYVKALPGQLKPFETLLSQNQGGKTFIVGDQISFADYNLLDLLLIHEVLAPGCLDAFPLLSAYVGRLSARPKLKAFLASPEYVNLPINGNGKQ

decrease of the absorbance value at 430 nm after addition of excess GSH [1]: less than 15%
Selectivity Index IC50GSTP1-1/IC50GSTM2-2 (GSTP1-1 [2]): 78
IC50 (GSTP1-1 [2]; GSTP1-1 20 nM): 4000 ± 200 nM
IC50 (GSTM2-2): 51 ± 8 nM
solubility ([3]; potassium phosphate buffer, pH 7.4, 0.1 M K-Phosphate buffer): 2000 µM (≈ 571 µg/mL)
solubility ([3]; sodium acetate buffer, pH 2.0, 0.1 M Na-Acetate Buffer): 2000 µM (≈ 571 µg/mL)
solubility ([3]; sodium acetate buffer, pH 5.0, 0.1 M Na-Acetate Buffer): 1900 µM (≈ 542 µg/mL)
stability of the σ-complex, rank order (GSTP1-1 [4]): NBDHEX > MC3181 > MC3165
SMILES: O=[N+]([O-])c1ccc(SCCOCCO)c2nonc12 [MC3165, 2-(2-((7-nitrobenzo[c][1,2,5]oxadiazol-4-yl)thio)ethoxy)ethan-1-ol]

IC50 (GSTM2-2): ≤ 10 nM
IC50 (A375): 1450 ± 140 nM
SMILES: O=[N+]([O-])c1ccc(SCCCCCCO)c2nonc12 [NBDHEX, 6-((7-nitrobenzo[c][1,2,5]oxadiazol-4-yl)thio)hexan-1-ol, reference compound]
IC50 (G-361): 550 ± 30 nM
IC50 (MALME-3M): 1800 ± 120 nM
IC50 (SK23-MEL): 1190 ± 90 nM
IC50 (IST-MEL-1): 1420 ± 50 nM

SMILES: Oc1c2ccccc2c2c3c(cccc13)N=N2 [SP600125, reference compound]
reduction of the MC3181-elicited increase in the number of cells in Sub-G1 phase (A375 cells [5]): about 40%
reduction of the MC3181-elicited increase of caspase-3 activity (A375 cells [6]): about 50%

SMILES: Cn1nnc2c(C(N)=O)ncn2c1=O [TMZ, temozolomide, reference compound]
decrease in BW [7]: ~15%
%ILS (A375 human melanoma; TMZ i.p. 100 mg/kg/d q1dx5): 35%
tumor growth (A375 human melanoma; TMZ i.p. 100 mg/kg/d q1dx5, from day 13 onward, P < 0.05): significantly delayed tumor growth
